Data published in PubChem BioAssay AID256 (DTP/NCI, 2004).
Where “and” joins values, the source holds several entries; their conditions need not be identical. Equal entries are not always repeated. Toxic doses and inconclusive results are not listed.

Tested on: CD2F1 mice, L1210 leukemia ip, survival T/C
Experiment: NCI In Vivo Anticancer Drug Screen. Data for tumor model L1210 Leukemia (intraperitoneal) in CD2F1 (CDF1) mice
Settings: higher = longer survival
Summary of the method: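 Mice carrying a transplanted tumor received test compound or vehicle alone. The value is the measurement in the treated group divided by that in the vehicle-treated control group.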

[1] = endpoint: mean survival time, dose: 100.0 mg/kg/injection, schedule: Q01DX009 (ip), vehicle: saline with Tween-80
[2] = endpoint: mean survival time, dose: 200.0 mg/kg/injection, schedule: Q01DX009 (ip), vehicle: saline with Tween-80
[3] = endpoint: mean survival time, dose: 400.0 mg/kg/injection, schedule: Q01DX009 (ip), vehicle: saline with Tween-80
[4] = endpoint: mean survival time, dose: 100.0 mg/kg/injection, schedule: Q04DX003 (ip), vehicle: saline with Tween-80
[5] = endpoint: mean survival time, dose: 200.0 mg/kg/injection, schedule: Q04DX003 (ip), vehicle: saline with Tween-80
[6] = endpoint: mean survival time, dose: 400.0 mg/kg/injection, schedule: Q04DX003 (ip), vehicle: saline with Tween-80
[7] = endpoint: mean survival time, dose: 100.0 mg/kg/injection, schedule: Q01DX001 (ip), vehicle: saline with Tween-80
[8] = endpoint: mean survival time, dose: 400.0 mg/kg/injection, schedule: Q01DX001 (ip), vehicle: saline with Tween-80
[9] = endpoint: mean survival time, dose: 12.5 mg/kg/injection, schedule: Q01DX009 (ip), vehicle: water
[10] = endpoint: mean survival time, dose: 25.0 mg/kg/injection, schedule: Q01DX009 (ip), vehicle: water
[11] = endpoint: mean survival time, dose: 50.0 mg/kg/injection, schedule: Q01DX009 (ip), vehicle: water

SMILES: Cc1ccc(-c2oc3ccccc3c(=O)c2O)cc1
- T/C (endpoint: mean survival time, dose: 50.0 mg/kg/injection, schedule: Q01DX001 (ip), vehicle: saline): 98 % of control
- T/C (endpoint: mean survival time, dose: 100.0 mg/kg/injection, schedule: Q01DX001 (ip), vehicle: saline): 92 % of control
- T/C (endpoint: mean survival time, dose: 200.0 mg/kg/injection, schedule: Q01DX001 (ip), vehicle: saline): 98 % of control
- T/C (endpoint: mean survival time, dose: 400.0 mg/kg/injection, schedule: Q01DX001 (ip), vehicle: saline): 98 % of control

SMILES: OC(COc1ccccc1)COc1ccccc1
- T/C [1]: 98 % of control
- T/C [2]: 93 % of control
- T/C [3]: 89 % of control

SMILES: Oc1ccccc1C=NCCN=Cc1ccccc1O
- T/C [4]: 90 % of control
- T/C [5]: 100 % of control
- T/C [6]: 92 % of control

SMILES: Cc1c(N=Nc2cc[n+]([O-])cc2)ccc(N(C)C)c1C
- T/C [4]: 102 % of control
- T/C [5]: 97 % of control

SMILES: CCC(C=O)Cc1ccccc1 (stereo unspecified)
- T/C [4]: 95 % of control
- T/C [5]: 94 % of control
- T/C [6]: 88 % of control

SMILES: CCc1ccc(-n2cnc3c(=O)[nH]c(N)nc32)cc1
- T/C [7]: 87 % of control
- T/C [8]: 93 % of control

SMILES: S=C([S-])N1CCCCC1.S=C([S-])N1CCCCC1.[Zn]
- T/C (endpoint: mean survival time, dose: 18.8 mg/kg/injection, schedule: Q01DX009 (ip), vehicle: saline): 93 % of control
- T/C (endpoint: mean survival time, dose: 37.5 mg/kg/injection, schedule: Q01DX009 (ip), vehicle: saline): 90 % of control

SMILES: C=CC1CCCCC1C (stereo unspecified)
- T/C [4]: 100 % of control
- T/C [5]: 100 % of control
- T/C [6]: 103 % of control

SMILES: ClCCCN1CCN(CCCCl)CC1
- T/C (endpoint: mean survival time, dose: 6.25 mg/kg/injection, schedule: Q01DX009 (ip), vehicle: distilled water + alcohol): 96 % of control
- T/C (endpoint: mean survival time, dose: 12.5 mg/kg/injection, schedule: Q01DX009 (ip), vehicle: distilled water + alcohol): 95 % of control
- T/C (endpoint: mean survival time, dose: 25.0 mg/kg/injection, schedule: Q01DX009 (ip), vehicle: distilled water + alcohol): 102 % of control
- T/C (endpoint: mean survival time, dose: 50.0 mg/kg/injection, schedule: Q01DX009 (ip), vehicle: distilled water + alcohol): 103 % of control
- T/C (endpoint: mean survival time, dose: 100.0 mg/kg/injection, schedule: Q01DX009 (ip), vehicle: distilled water + alcohol): 108 % of control

SMILES: N=C(N)c1ccc(/C=C/c2ccc(C(=N)N)cc2O)cc1
- T/C (endpoint: mean survival time, dose: 3.12 mg/kg/injection, schedule: Q01DX009 (ip), vehicle: water): 91 % of control
- T/C (endpoint: mean survival time, dose: 6.25 mg/kg/injection, schedule: Q01DX009 (ip), vehicle: water): 97 % of control
- T/C [9]: 103 % of control
- T/C [10]: 105 % of control
- T/C [11]: 111 % of control

SMILES: CC(C)(C)OC(=O)NC(CSCc1ccccc1)C(=O)Oc1ccc([N+](=O)[O-])cc1 (stereo unspecified)
- T/C [4]: 95 % of control
- T/C [5]: 90 % of control
- T/C [6]: 86 % of control

SMILES: CC(=O)Oc1ccccc1O
- T/C (endpoint: median survival time, dose: 12.5 mg/kg/injection, schedule: Q01DX009 (ip), vehicle: saline + Tween-80 + alcohol): 96 % of control and 103 % of control
- T/C (endpoint: median survival time, dose: 25.0 mg/kg/injection, schedule: Q01DX009 (ip), vehicle: saline + Tween-80 + alcohol): 101 % of control and 109 % of control

SMILES: O=c1[nH]c2ccccc2nc1C(Cl)Cl
- T/C (endpoint: mean survival time, dose: 25.0 mg/kg/injection, schedule: Q01DX009 (ip), vehicle: Klucel (hydroxypropylcellulose) (HPC)): 105 % of control
- T/C (endpoint: mean survival time, dose: 50.0 mg/kg/injection, schedule: Q01DX009 (ip), vehicle: Klucel (hydroxypropylcellulose) (HPC)): 100 % of control
- T/C (endpoint: mean survival time, dose: 50.0 mg/kg/injection, schedule: Q04DX003 (ip), vehicle: Klucel (hydroxypropylcellulose) (HPC)): 114 % of control
- T/C (endpoint: mean survival time, dose: 100.0 mg/kg/injection, schedule: Q01DX009 (ip), vehicle: Klucel (hydroxypropylcellulose) (HPC)): 116 % of control
- T/C (endpoint: mean survival time, dose: 100.0 mg/kg/injection, schedule: Q04DX003 (ip), vehicle: Klucel (hydroxypropylcellulose) (HPC)): 105 % of control
- T/C (endpoint: mean survival time, dose: 200.0 mg/kg/injection, schedule: Q04DX003 (ip), vehicle: Klucel (hydroxypropylcellulose) (HPC)): 105 % of control
- T/C (endpoint: median survival time, dose: 50.0 mg/kg/injection, schedule: Q04DX003 (ip), vehicle: Klucel (hydroxypropylcellulose) (HPC)): 107 % of control
- T/C (endpoint: median survival time, dose: 100.0 mg/kg/injection, schedule: Q04DX003 (ip), vehicle: Klucel (hydroxypropylcellulose) (HPC)): 104 % of control
- T/C (endpoint: median survival time, dose: 200.0 mg/kg/injection, schedule: Q04DX003 (ip), vehicle: Klucel (hydroxypropylcellulose) (HPC)): 117 % of control

SMILES: CC(=O)N/N=C/C(C)(C)C(C)(C)/C=N/NC(C)=O
- T/C (endpoint: mean survival time, dose: 100.0 mg/kg/injection, schedule: Q04DX002 (ip), vehicle: saline with Tween-80): 103 % of control
- T/C (endpoint: mean survival time, dose: 200.0 mg/kg/injection, schedule: Q04DX002 (ip), vehicle: saline with Tween-80): 122 % of control

SMILES: CC1OC(=O)C(C(C)C)NC(=O)C(C(C)C)OC(=O)C(C(C)C)NC(=O)C(C)OC(=O)C(C(C)C)NC(=O)C(C(C)C)OC(=O)C(C(C)C)NC(=O)C(C)OC(=O)C(C(C)C)NC(=O)C(C(C)C)OC(=O)C(C(C)C)NC1=O (stereo unspecified)
- T/C (endpoint: mean survival time, dose: 1.25 mg/kg/injection, schedule: Q01DX009 (ip), vehicle: saline with Tween-80): 109 % of control
- T/C (endpoint: mean survival time, dose: 2.5 mg/kg/injection, schedule: Q01DX009 (ip), vehicle: saline with Tween-80): 103 % of control and 107 % of control
- T/C (endpoint: mean survival time, dose: 5.0 mg/kg/injection, schedule: Q01DX009 (ip), vehicle: saline with Tween-80): 103 % of control and 110 % of control
- T/C (endpoint: mean survival time, dose: 10.0 mg/kg/injection, schedule: Q01DX009 (ip), vehicle: saline with Tween-80): 106 % of control
- T/C (endpoint: mean survival time, dose: 20.0 mg/kg/injection, schedule: Q01DX009 (ip), vehicle: saline with Tween-80): 112 % of control

SMILES: O=C1c2ccccc2C(=O)N1Cc1ccccc1
- T/C [1]: 105 % of control
- T/C [2]: 100 % of control
- T/C [3]: 103 % of control

SMILES: COC(C)(C)O/N=C(\C[n+]1ccccc1)c1ccccc1
- T/C [9]: 95 % of control
- T/C [10]: 91 % of control
- T/C [11]: 90 % of control

SMILES: CNc1nc2c(N)ncnc2n1C1OC(CO)C(O)C1O (stereo unspecified)
- T/C (endpoint: mean survival time, dose: 3.12 mg/kg/injection, schedule: Q01DX009 (ip), vehicle: saline): 95 % of control
- T/C (endpoint: mean survival time, dose: 6.25 mg/kg/injection, schedule: Q01DX009 (ip), vehicle: saline): 106 % of control
- T/C (endpoint: mean survival time, dose: 12.5 mg/kg/injection, schedule: Q01DX009 (ip), vehicle: saline): 106 % of control and 107 % of control
- T/C (endpoint: mean survival time, dose: 12.5 mg/kg/injection, schedule: Q04DX002 (ip), vehicle: saline): 98 % of control
- T/C (endpoint: mean survival time, dose: 25.0 mg/kg/injection, schedule: Q01DX005 (ip), vehicle: distilled water + Tween-80): 96 % of control
- T/C (endpoint: mean survival time, dose: 25.0 mg/kg/injection, schedule: Q01DX009 (ip), vehicle: saline): 115 % of control and 101 % of control
- T/C (endpoint: mean survival time, dose: 25.0 mg/kg/injection, schedule: Q04DX002 (ip), vehicle: saline): 102 % of control
- T/C (endpoint: mean survival time, dose: 50.0 mg/kg/injection, schedule: Q01DX005 (ip), vehicle: distilled water + Tween-80): 103 % of control
- T/C (endpoint: mean survival time, dose: 50.0 mg/kg/injection, schedule: Q01DX009 (ip), vehicle: saline): 102 % of control
- T/C (endpoint: mean survival time, dose: 50.0 mg/kg/injection, schedule: Q04DX002 (ip), vehicle: saline): 112 % of control
- T/C (endpoint: mean survival time, dose: 100.0 mg/kg/injection, schedule: Q01DX005 (ip), vehicle: distilled water + Tween-80): 100 % of control
- T/C (endpoint: mean survival time, dose: 100.0 mg/kg/injection, schedule: Q01DX009 (ip), vehicle: saline): 108 % of control
- T/C (endpoint: mean survival time, dose: 200.0 mg/kg/injection, schedule: Q01DX005 (ip), vehicle: distilled water + Tween-80): 96 % of control
- T/C (endpoint: mean survival time, dose: 400.0 mg/kg/injection, schedule: Q01DX005 (ip), vehicle: distilled water + Tween-80): 101 % of control

SMILES: COc1ccn(C2OC(=O)C(C)(C)C2=O)c(=O)n1 (stereo unspecified)
- T/C (endpoint: median survival time, dose: 12.5 mg/kg/injection, schedule: Q01DX005 (ip), vehicle: saline): 101 % of control
- T/C (endpoint: median survival time, dose: 25.0 mg/kg/injection, schedule: Q01DX005 (ip), vehicle: saline): 100 % of control
- T/C (endpoint: median survival time, dose: 50.0 mg/kg/injection, schedule: Q01DX005 (ip), vehicle: saline): 101 % of control
- T/C (endpoint: median survival time, dose: 100.0 mg/kg/injection, schedule: Q01DX005 (ip), vehicle: saline): 101 % of control
- T/C (endpoint: median survival time, dose: 200.0 mg/kg/injection, schedule: Q01DX005 (ip), vehicle: saline): 100 % of control

SMILES: CS(=O)(=O)Nc1ccc(Nc2c3ccccc3nc3cc(Cl)ccc23)cc1
- T/C (endpoint: mean survival time, dose: 50.0 mg/kg/injection, schedule: Q01DX009 (ip), vehicle: saline with Tween-80): 186 % of control
- T/C (endpoint: mean survival time, dose: 100.0 mg/kg/injection, schedule: Q04DX003 (ip), vehicle: saline): 160 % of control
- T/C (endpoint: mean survival time, dose: 133.0 mg/kg/injection, schedule: Q04DX003 (ip), vehicle: saline with Tween-80): 114 % of control
- T/C (endpoint: mean survival time, dose: 200.0 mg/kg/injection, schedule: Q04DX003 (ip), vehicle: saline): 225 % of control

SMILES: CC1(C)CN(c2ccccc2)N(CN2CCOCC2)C1=O
- T/C (endpoint: mean survival time, dose: 12.5 mg/kg/injection, schedule: Q01DX009 (ip), vehicle: Klucel (hydroxypropylcellulose) (HPC)): 89 % of control

SMILES: CCCCNC1=CC(=O)c2ccccc2C1=O
- T/C [7]: 103 % of control
- T/C (endpoint: mean survival time, dose: 200.0 mg/kg/injection, schedule: Q01DX001 (ip), vehicle: saline with Tween-80): 95 % of control
- T/C [8]: 92 % of control
